We go through ten compounds from article PMC4834193 (Journal of medicinal chemistry, 2015).

pEC50, pKi: −log10 of the molar value. Entries after “also recorded” stand apart in the source; their conditions may differ. A value given as a limit tells only on which side of the number the result lay.

The test system of one series is CYP3A. Kind of series: CYP inhibition, human liver microsomes. The note with it: substrate midazolam.
Series [1] addresses hERG (Homo sapiens, UniProt Q12809). The experiment in a line: hERG inhibition, CHO cells, automated patch-clamp. Type of series: cell-based. On the technique in general: Block of hERG is tested as a sign of cardiac risk.
A short description of series [2]: Brain penetration study in CD1 mice. Type of series: in vivo. Particulars: CD1, mouse, intraperitoneal, 10 mg/kg.
The subject of the next series is C57BL/6J mice. The experiment in a line: Amphetamine-induced hyperactivity, open field activity. Particulars: 3 mg/kg AMPH; for AMPH-stimulated hyperlocomotion at 20 mg/kg: 20 mg/kg ip; for AMPH-stimulated hyperlocomotion: 10 or 20 mg/kg ip, relative to Veh–AMPH group.
The subject of series [3] is TA98, TA100, TA1535, and TA1537 strains. Type of series: cell-based. Particulars: with/without S9, 10, 50, and 100 µM.
In series [4] the target is T1, human 5-HT2B (Homo sapiens, UniProt P41595). Kind of series: Calcium flux. On the technique in general: A change in cytosolic calcium serves as a functional read-out for many receptors and channels.
For series [5], the target named is T1, human 5-HT2B. Kind of series: PDSP binding study, 5-HT2B.
The next series deals with T2, 5-HT2C receptor (Homo sapiens, UniProt P28335).
T2 sequence (P28335 33-458): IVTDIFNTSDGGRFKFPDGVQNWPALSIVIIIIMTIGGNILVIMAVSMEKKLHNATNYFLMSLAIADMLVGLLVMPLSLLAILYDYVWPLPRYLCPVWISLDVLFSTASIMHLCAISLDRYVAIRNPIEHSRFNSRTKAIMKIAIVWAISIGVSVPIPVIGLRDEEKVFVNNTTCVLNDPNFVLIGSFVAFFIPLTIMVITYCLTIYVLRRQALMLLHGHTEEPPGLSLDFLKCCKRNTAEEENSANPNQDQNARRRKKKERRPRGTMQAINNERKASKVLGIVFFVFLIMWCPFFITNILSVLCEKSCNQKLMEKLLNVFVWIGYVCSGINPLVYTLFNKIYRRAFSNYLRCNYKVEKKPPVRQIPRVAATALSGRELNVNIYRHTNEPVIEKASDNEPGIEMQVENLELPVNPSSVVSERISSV
The experiment in a line: PDSP binding study, 5-HT2C.

In the next series the target is human 5-HT2A (Homo sapiens, UniProt P28223). The experiment in a line: Calcium flux. Particulars: from functional EC50 values.
Series [6] addresses T1, human 5-HT2B. The note with it: cited from earlier work.
The conditions of series [7]: cited from earlier work.
For series [8], the system named is hERG. The note with it: previous studies; cited from earlier work.
In another series the test system is 5-HT2A. Particulars: cited from earlier work.
For series [9] the following is noted: clinical trials, compared to placebo group; cited from earlier work.

T1 sequence (P41595 whole entry): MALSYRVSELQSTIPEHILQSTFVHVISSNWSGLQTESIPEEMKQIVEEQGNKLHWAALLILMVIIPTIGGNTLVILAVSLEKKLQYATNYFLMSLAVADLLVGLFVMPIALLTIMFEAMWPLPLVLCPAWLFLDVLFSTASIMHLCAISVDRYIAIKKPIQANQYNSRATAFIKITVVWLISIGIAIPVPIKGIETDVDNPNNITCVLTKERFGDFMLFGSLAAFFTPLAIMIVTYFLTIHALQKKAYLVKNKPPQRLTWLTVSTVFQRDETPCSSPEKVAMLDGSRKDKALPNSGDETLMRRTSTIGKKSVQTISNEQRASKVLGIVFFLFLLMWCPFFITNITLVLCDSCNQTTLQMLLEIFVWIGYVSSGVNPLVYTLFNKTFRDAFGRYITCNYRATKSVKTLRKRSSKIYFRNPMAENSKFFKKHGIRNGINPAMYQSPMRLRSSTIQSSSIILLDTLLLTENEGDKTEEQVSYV
human 5-HT2A, sequence (P28223 whole entry): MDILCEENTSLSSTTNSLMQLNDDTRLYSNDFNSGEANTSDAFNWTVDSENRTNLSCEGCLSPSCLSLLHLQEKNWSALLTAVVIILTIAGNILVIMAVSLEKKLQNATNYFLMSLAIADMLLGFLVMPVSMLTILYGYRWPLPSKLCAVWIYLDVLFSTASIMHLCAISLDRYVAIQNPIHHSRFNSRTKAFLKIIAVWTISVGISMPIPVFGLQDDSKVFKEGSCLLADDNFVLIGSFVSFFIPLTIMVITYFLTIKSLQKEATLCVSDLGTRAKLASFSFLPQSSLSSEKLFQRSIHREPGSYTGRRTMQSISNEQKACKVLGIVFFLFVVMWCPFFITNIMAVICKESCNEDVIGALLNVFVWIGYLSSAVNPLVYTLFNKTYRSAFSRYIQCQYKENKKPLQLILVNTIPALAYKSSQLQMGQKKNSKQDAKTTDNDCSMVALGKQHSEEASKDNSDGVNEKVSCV
hERG (Homo sapiens, UniProt Q12809), sequence (Q12809 whole entry): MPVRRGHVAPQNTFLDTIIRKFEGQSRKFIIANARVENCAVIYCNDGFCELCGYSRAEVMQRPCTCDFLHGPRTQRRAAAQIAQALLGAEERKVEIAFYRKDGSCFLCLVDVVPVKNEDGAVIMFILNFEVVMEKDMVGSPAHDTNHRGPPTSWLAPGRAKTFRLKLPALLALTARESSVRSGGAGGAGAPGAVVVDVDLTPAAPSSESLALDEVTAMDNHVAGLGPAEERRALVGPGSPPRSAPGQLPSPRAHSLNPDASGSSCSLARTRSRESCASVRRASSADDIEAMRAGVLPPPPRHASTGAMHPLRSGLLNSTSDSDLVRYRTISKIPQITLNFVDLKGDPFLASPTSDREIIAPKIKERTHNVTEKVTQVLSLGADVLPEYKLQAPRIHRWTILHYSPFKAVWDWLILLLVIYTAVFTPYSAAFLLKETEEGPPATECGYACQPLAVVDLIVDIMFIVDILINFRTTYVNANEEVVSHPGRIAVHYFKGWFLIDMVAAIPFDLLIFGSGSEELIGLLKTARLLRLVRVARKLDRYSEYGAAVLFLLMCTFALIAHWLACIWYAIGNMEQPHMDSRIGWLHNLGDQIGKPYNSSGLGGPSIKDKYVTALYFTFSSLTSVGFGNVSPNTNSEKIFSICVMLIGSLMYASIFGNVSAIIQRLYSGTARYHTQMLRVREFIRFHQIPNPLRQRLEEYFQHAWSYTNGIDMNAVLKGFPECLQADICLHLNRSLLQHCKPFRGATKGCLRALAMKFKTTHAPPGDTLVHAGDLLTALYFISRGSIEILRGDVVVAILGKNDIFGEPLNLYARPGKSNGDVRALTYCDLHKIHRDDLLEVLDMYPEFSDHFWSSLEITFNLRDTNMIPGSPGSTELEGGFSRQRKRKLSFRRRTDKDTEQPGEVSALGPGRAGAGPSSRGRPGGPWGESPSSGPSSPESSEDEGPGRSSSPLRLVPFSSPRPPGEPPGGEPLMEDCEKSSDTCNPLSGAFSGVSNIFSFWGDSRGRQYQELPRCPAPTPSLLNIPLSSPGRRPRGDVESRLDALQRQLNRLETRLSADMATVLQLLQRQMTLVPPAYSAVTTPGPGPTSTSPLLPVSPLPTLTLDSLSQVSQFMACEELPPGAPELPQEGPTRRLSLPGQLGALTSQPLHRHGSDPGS

On to `C=CCOc1ccc(Cl)cc1[C@H]1C[C@@H]1CN.O=C(O)C(F)(F)F` [(+)-13h], for which the “CYP inhibition at 10 µM, 3A” value with CYP3A is 27%.

With `C=C(F)COc1ccc(Cl)cc1[C@H]1C[C@@H]1CN.Cl` [(+)-13j], at hERG [1], the “hERG IC50” value is “moderate inhibition”. Further, in series [2] (brain), the concentration at 0.5 h came to 17500 ng/g and the concentration at 2 h came to 14700 ng/g. In [2] (plasma), this compound had a concentration at 0.5 h of 1440 ng/mL and a concentration at 2 h of 903 ng/mL. Also, in the series with C57BL/6J mice, the “AMPH-stimulated hyperlocomotion at 20 mg/kg” value is reported as “most efficacious” and the AMPH-stimulated hyperlocomotion result is “dose dependently suppressed the hyperactivity”. Moreover, the Ames fluctuation test result in series [3] was “negative”.

Usually pEC50 stands for −log10 of the EC50, conventionally taken in molar units. As a reminder, the Emax is the maximal effect, on the per cent scale that the assay sets. On to `C=C(C)COc1ccc(Cl)cc1[C@H]1C[C@@H]1CN` [(+)-13k], for which, at human 5-HT2B [4], the pEC50 was 5.22. In addition, the maximal response (Emax) on human 5-HT2B [4] (read-out: Emax 5-HT2B, normalized to internal 5-HT reference) was found to be 39%.

In the case of `Cl.NC[C@H]1C[C@@H]1c1cc(Cl)ccc1OCCF` [(+)-13l], the values for the concentration at 0.5 h in series [2] (brain) and in series [2] (plasma) were 12800 ng/g and 1200 ng/mL, respectively. For the same compound, the concentration at 2 h in series [2] (brain) came out at 13400 ng/g; in series [2] (plasma), 874 ng/mL. For the same compound, the AMPH-stimulated hyperlocomotion result with C57BL/6J mice is reported as “not differentiated by dose”.

By pKi is commonly meant −log10 of the Ki, conventionally taken in molar units. Read a high pKi as a small Ki. Consider `C=CCOc1ccc(F)cc1[C@H]1C[C@@H]1CN.Cl` [(+)-16b, (+)-((1S,2S)-2-(2-(Allyloxy)-5-fluorophenyl)cyclopropyl)-methanamine Hydrochloride], for which, in the series with C57BL/6J mice, the “AMPH-stimulated hyperlocomotion at 20 mg/kg” value was “most efficacious; also recorded: completely reversed” and the AMPH-stimulated hyperlocomotion result was “dose dependently suppressed the hyperactivity”. This compound also had a negative-log Ki (pKi) on human 5-HT2B [5] of 7.30 to 7.52. For the same compound, at 5-HT2C receptor, the negative logarithm of the Ki (pKi) was 7.30 to 7.52.

In the case of `Cl.NC[C@H]1C[C@@H]1c1cc(F)ccc1OCCF` [(+)-16d, (+)-((1S,2S)-2-(5-Fluoro-2-(2-fluoroethoxy)phenyl)-cyclopropyl)methanamine Hydrochloride], on human 5-HT2A, the “selectivity for 5-HT2C against 5-HT2A” value is reported as above 100 fold. For the same compound, the AMPH-stimulated hyperlocomotion result with C57BL/6J mice was “not differentiated by dose”. Further, the pKi on human 5-HT2B [5] and at 5-HT2C receptor was 7.30 to 7.52 in each case.

With `Clc1cccc(COc2cncc(N3CCNCC3)n2)c1` [CP-809,101, 2-(3-chlorobenzyloxy)-6-(piperazinyl)-pyrazine], the “5-HT2C selectivity against 5-HT2B” value on human 5-HT2B [6] is “about 600 fold”. Moreover, in series [7], the genotoxicity result was “genotoxicity”.

Turning to `NC[C@H]1C[C@@H]1c1cc(F)ccc1OCC1CC1` [Compound 8], the hERG inhibition result with hERG [8] is “no hERG inhibition”.

On to `c1cc2c3c(c1)[C@H]1CCC[C@H]1N3CCNC2` [WAY-163909, (7bR,10aR)-1,2,3,4,8,9,10,10a–octahydro-7bH-cyclopenta-[b][1,4]diazepino[6,7,1-hi]indole], for which the “agonist activity at 5-HT2A” value in the series on 5-HT2A is recorded as “no agonist activity”.

With `C[C@H]1CNCCc2ccc(Cl)cc21` [lorcaserin], in [9], the “incidence of cardiac valve disorders” value is “higher incidence of cardiac valve disorders”.
